The source of these data is PubChem BioAssay AID1213 (NMMLSC, 2008).

The structures appear in SMILES notation. Records with an inconclusive call do not appear. Activity calls are given as the source filed them.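 The calls were made as follows: active = compound giving calcium release at least equal to the estrogen response, or cutting estrogen-driven calcium release by 60% or more; inconclusive = compound glowing brighter than the detergent maximum; inactive = the rest.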

The target of this test is G-protein coupled estrogen receptor 1 (Homo sapiens) (UniProt Q99527). The test is described as follows: GPER-mediated calcium mobilization modulators – HL-60 cells, Indo-1 fluorescence, 10 µM, primary screen (AID 1213). Particulars: Indo-1 calcium mobilization, at 10 µM; for calcium mobilization (agonist): stronger effect = higher value; for inhibition of estrogen-induced calcium mobilization (higher = more inhibition): measured here: antagonist mode response.

In the case of `O=C(OC1CCCCC1)c1ccc2c(c1)C1C=CCC1C(C(=O)O)N2` (centres undefined), the calcium mobilization (agonist) was 0% (inactive).
Take `O=C(O)c1ccc(NS(=O)(=O)c2ccc3c(c2)C2C=CCC2C(c2ccccc2F)N3)cc1` (centres undefined): the calcium mobilization (agonist) was 0% (inactive) and the inhibition of estrogen-induced calcium mobilization (higher = more inhibition) was determined as 50%.
For `Cc1ccc2c(c1)[C@H]1OCC[C@H]1[C@@H](c1ccncc1)N2`, in that order: 0% (inactive) and 50%.
`CCCCCCNC(=O)c1cc(-c2ccco2)nc2ccccc12`: the calcium mobilization (agonist) was 0% (inactive).
On the same count and under the same terms, then `CCC(=O)Oc1ccc(C(CC)C(CC)c2ccc(OC(=O)CC)cc2)cc1` (centres undefined), with 0% (inactive).
With `C[C@]12CC[C@@H]3c4ccc(O)cc4C(=O)C[C@H]3[C@@H]1CC[C@@H]2O`, the calcium mobilization (agonist) is 0% (inactive).
Same read-out and setting: then `C[C@]12CC[C@@H]3c4ccc(O)cc4[C@@H](O)C[C@H]3[C@@H]1CC[C@@H]2O`, with 0% (inactive); and `O=C(Cc1cccs1)Nc1ccc(S(=O)(=O)Nc2ncccn2)cc1`, with 0% (inactive); and `Cc1nnc(SCC(=O)NC(=O)NCc2ccco2)n1Cc1ccccc1`, with 0% (inactive).
The same measure, in the same setting: the value for `Cc1nn(-c2ccccc2)c(/N=C/c2ccc(O)cc2)c1-c1ccccc1` was 0% (inactive); that for `CC(=O)c1ccc2c(c1)C1C(Cl)C(Sc3ccccc3[N+](=O)[O-])CC1C(c1ccccc1)N2` (centres undefined) was 0% (inactive).
As to `COc1cccc(NS(=O)(=O)c2ccc3c(c2)C2C=CCC2C(c2ccc(C(=O)O)cc2)N3)c1` (centres undefined), the calcium mobilization (agonist) was 0% and the inhibition of estrogen-induced calcium mobilization (higher = more inhibition) amounted to 100%.
As to `Cc1c(Cl)cccc1NS(=O)(=O)c1ccc2c(c1)C1C=CCC1C(c1ccc(C(=O)O)cc1)N2` (centres undefined), the calcium mobilization (agonist) was 0% and the inhibition of estrogen-induced calcium mobilization (higher = more inhibition) came to 100%.
Taken in the same sequence, the figures for `O=C1NC(c2ccc(Br)cc2)Nc2sc3c(c21)CCC3` (centres undefined) were 50% (inactive) and 50%.
Take `CC(C)C1Nc2ccc(S(N)(=O)=O)cc2C2C=CCC21` (centres undefined): the calcium mobilization (agonist) was 0% (inactive).
On the same count and under the same terms, then `CCCC1Nc2ccc(C(=O)O)cc2C2C=CCC12` (centres undefined), with 0% (inactive).
`Cc1ccc2c(c1C)NC(C(=O)O)C1CC=CC21` (centres undefined): the calcium mobilization (agonist) is 0% and the inhibition of estrogen-induced calcium mobilization (higher = more inhibition) came out at 100%.
Regarding `O=C(O)c1cc(Cl)c2c(c1)[C@@H]1C=CC[C@@H]1[C@H](c1ccc(S(=O)(=O)N3CCOCC3)cc1)N2`, the calcium mobilization (agonist) is 0% (inactive).
As to `COc1ccc(C(=O)N/N=C(\C)c2ccc3c(c2)C2C=CCC2C(c2ccccc2)N3)cc1` (centres undefined), the calcium mobilization (agonist) is 50% (inactive) and the inhibition of estrogen-induced calcium mobilization (higher = more inhibition) came out at 50%.
On to `CC(C)c1ccc2c(c1)[C@H]1OCC[C@H]1[C@@H](c1cccs1)N2`, for which the calcium mobilization (agonist) is 0% (inactive).
As to `O=C(O)c1ccc(Cl)c2c1C1C=CCC1C(c1ccccn1)N2` (centres undefined), the calcium mobilization (agonist) was 50% (inactive).
Still for that read-out and setting: the value for `CCCNC(=O)c1ccc2c(c1)C1C3CCC(C3)C1C(c1ccccc1)N2` (centres undefined) was 100%.
Take `CC(C)C1Nc2ccc(C(=O)O)cc2C2C=CCC21` (centres undefined): the calcium mobilization (agonist) is 0% and the inhibition of estrogen-induced calcium mobilization (higher = more inhibition) stood at 100%.
With `Cc1cc([N+](=O)[O-])c2c(c1C)C1C=CCC1C(c1ccccn1)N2` (centres undefined), the calcium mobilization (agonist) was 0% (inactive).
Same read-out and setting: then `O=C(NC1CC1)c1ccc2c(c1)C1C3CCC(C3)C1C(c1ccccc1)N2` (centres undefined), with 100%; and `Fc1ccc2c(c1)C1C=CCC1C(c1cc3c(cc1Br)OCO3)N2` (centres undefined), with 100%.
For the molecule `FC(F)(F)c1ccc2c(c1)C1C=CCC1C(c1ccncc1)N2` (centres undefined), the calcium mobilization (agonist) is 0% (inactive) and the inhibition of estrogen-induced calcium mobilization (higher = more inhibition) was found to be 50%.
In the case of `O=C(COC(=O)CCC(=O)c1cccs1)NCc1ccco1`, the calcium mobilization (agonist) was 0% (inactive).
On the same count and under the same terms, then `CC(C)C1Nc2c(O)cc(Cl)c([N+](=O)[O-])c2C2C=CCC21` (centres undefined), with 100%.
As to `Cc1cc(-c2nn3c(-c4ccccc4)nnc3s2)c2ccccc2n1`, the calcium mobilization (agonist) is 0% (inactive).
For the molecule `Cc1cc(C)c2c(c1)[C@@H]1C=CC[C@@H]1[C@H](c1ccc(S(=O)(=O)N3CCOCC3)cc1)N2`, the calcium mobilization (agonist) was 0% and the inhibition of estrogen-induced calcium mobilization (higher = more inhibition) amounted to 100%.
Regarding `CCNC(=O)c1ccc2c(c1)C1C3CCC(C3)C1C(c1ccccc1)N2` (centres undefined), the calcium mobilization (agonist) was 100%.
On to `COc1ccc(NC(=O)C(c2ccccc2)N(C)C(=O)c2ccc(=O)[nH]c2)cc1` (centres undefined), for which the calcium mobilization (agonist) was 0% (inactive).
As to `O=C(O)c1ccc2c(c1)C1C(Cl)C(Sc3ccccc3[N+](=O)[O-])CC1C(c1cccc([N+](=O)[O-])c1)N2` (centres undefined), the calcium mobilization (agonist) is 0% and the inhibition of estrogen-induced calcium mobilization (higher = more inhibition) worked out at 100%.
As for `Cc1cc(C)c2c(c1)NC(c1cc3c(cc1Br)OCO3)C1CC=CC21` (centres undefined), the calcium mobilization (agonist) was 50% (inactive).
On the same count and under the same terms, the value for `CC(C)(C)NC(=O)c1ccc2c(c1)C1C3CCC(C3)C1C(c1ccccc1)N2` (centres undefined) was 100%; that for `COc1ccc2c(c1)C1C=CCC1C(c1cc3c(cc1Br)OCO3)N2` (centres undefined) was 100%.
Regarding `O=S(=O)(NCCc1csc(-c2cccnc2)n1)c1ccc(Cl)s1`, the calcium mobilization (agonist) was 100%.
As to `O=C(O)C1Nc2c(O)cccc2C2C=CCC12` (centres undefined), the calcium mobilization (agonist) was 50% (inactive).
On to `O=C(Nc1cc(C(F)(F)F)ccc1N1CCOCC1)C1Cc2ccccc2CN1C(=O)c1ccco1` (centres undefined), for which the calcium mobilization (agonist) was 0% (inactive).
Same read-out and setting: the value for `NS(=O)(=O)c1ccc2c(c1)C1C=CCC1C(C1CC=CCC1)N2` (centres undefined) was 0% (inactive).
Still for that read-out and setting: the value for `O=C(O)c1ccc2c(c1)[C@@H]1C=CC[C@@H]1[C@H](c1ccccn1)N2` was 0% (inactive); that for `CC(=O)N1c2ccc(Cl)cc2C2C=CCC2C1c1cccc2ccccc12` (centres undefined) was 100%.
